In BindingDB's records for doi:10.1080/14756360310001612211 (Kobe Gakuin University, 2003):
Where “and” joins values, the source holds several entries; their conditions need not be identical. Identical values can stand only once.

Biological target: Proto-oncogene tyrosine-protein kinase Src (Gallus gallus, UniProt P00523)
Assay: Tyrosine Kinase Assay
Settings: 37 °C
Description: Takara Universal Tyrosine Assay Kit (Takara-bio co) was used to test the synthesized compounds. This assay kit determines the inhibition activities of inhibitors against a substrate of tyrosine kinase.

IC50 | SMILES
> 500 µM and 631 µM | CN(C)CCOC(=O)c1cc2ccccc2n1Cc1ccccc1 [Indole ester derivative, 6]
> 1000 µM and 614 µM | CCN(CC)CCOC(=O)c1cc2ccccc2n1Cc1ccccc1 [Indole ester derivative, 7]
> 1000 µM and 215 µM | O=C(OCCN(n1cccc1)n1cccc1)c1cc2ccccc2n1Cc1ccccc1 [Indole ester derivative, 8]
> 1000 µM | CC(CN(C)C)OC(=O)c1cc2ccccc2n1Cc1ccccc1 (stereo not drawn) [Indole ester derivative, 10]
> 1000 µM | CN(C)CCOC(=O)c1cc2ccccc2n1-c1ccccc1 [Indole ester derivative, 17]
> 1000 µM | CC(CN(C)C)OC(=O)c1cc2ccccc2n1-c1ccccc1 (stereo not drawn) [Indole ester derivative, 21]

Further lines, the compound ahead of its results:

SMILES | IC50
O=C(OCCN(N1CCCCC1)N1CCCCC1)c1cc2ccccc2n1-c1ccccc1 [Indole ester derivative, 16] | 306 µM and > 1000 µM and 279 µM
CCN(CC)CCOC(=O)c1cc2ccccc2n1-c1ccccc1 [Indole ester derivative, 18] | > 1000 µM and 817 µM
O=C(OCCN(n1cccc1)n1cccc1)c1cc2ccccc2n1-c1ccccc1 [Indole ester derivative, 19] | 258 µM and > 1000 µM
CCN(CC)CCOC(=O)c1cc2ccccc2[nH]1 [Indole ester derivative, 23] | > 1000 µM
O=C(OCCN(n1cccc1)n1cccc1)c1cc2ccccc2[nH]1 [Indole ester derivative, 24] | 21.4 µM
CC(CN(C)C)OC(=O)c1cc2ccccc2[nH]1 (stereo not drawn) [Indole ester derivative, 26] | > 500 µM
O=C(OCCN(N1CCCCC1)N1CCCCC1)c1cc2ccccc2[nH]1 [Indole ester derivative, 27] | 830 µM and > 500 µM
